The values that follow are results of earlier work, collected in US20250195352A1, “LIPID FORMULATIONS CONTAINING BIOACTIVE FATTY ACIDS AND OTHER BIOACTIVE AGENTS” (Sciadonics, Inc., priority 2022, published 2025).

Structures are written as SMILES.

Data set [1] relates to cultured human skin keratinocytes. As to conditions: purified SA taken up by cultured human skin keratinocytes; Berger 2002.
The test system of a further data set is PPAR receptors. As to conditions: unmetabolized SA; Berger 2002.

Consider `CCCCCC=CCC=CCCCCC=CCCCC(=O)O` [SA, 5,11,14-eicosatrienoic acid], for which, in data set [1], the ARA levels result is listed as “reduced” and the “prostaglandin E2 (PGE2) levels” value is “reduced”. Moreover, the “binding to PPAR receptors” value in the data set on PPAR receptors was “does not bind”.
